Source: article PMC4052304, “New Benzoxazine Secondary Metabolites from an Arctic Actinomycete” (Marine Drugs, 2014)
Read-outs that look alike come from different tables or passages of the source. One block for each compound: values may come before it.

Tests used:
[1] = target: Candida albicans isocitrate lyase (ICL) (Candida albicans, UniProt Q9P8Q7); experiment: Inhibition of the isocitrate lyase (ICL) activity assay; assay type: biochemical; conditions: for inhibitory activity towards ICL (in words): even at high concentrations (100 μg/mL)
Description: The formation of glyoxylate phenylhydrazone in the presence of phenylhydrazine and isocitrate was measured spectrophotometrically at 324 nm. The enzyme reaction mixture (1 mL) included 1.27 mM threo-DS (+) isocitrate, 3.75 mM MgCl2, 4.1 mM phenylhydrazine, 20 mM sodium phosphate buffer (pH 7.0), and 2.5 μg/mL purified C. albicans ICL. The reaction was performed at 37 °C for 30 min, and the protein concentration was measured using the Bradford method and a Bio-Rad protein assay Kit (Bio-Rad, Alfred Nobel Dr. Hercules, CA, USA) with bovine serum albumin as a standard.

[2] = test system: MDA-MB231 (breast cancer) cells; experiment: Anti-proliferative activity, SRB assay, MDA-MB231; assay type: cell-based; conditions: Homo sapiens, MDA-MB-231, 72 h, read-out: IC50, cytotoxicity against MDA-MB231
Description: (§1) Cell proliferation was analyzed using the sulforhodamine B (SRB) assay. Six human cancer cell lines (HCT116, MDA-MB231, SNU638, A549, K562, and SK-HEP1 at 3 × 10^4 cells/mL) were seeded in 96-well plates at different compound concentrations before incubating at 37 °C in a humidified atmosphere with 5% CO2. After 72 h of treatment, the cells were fixed with a 10% TCA solution for 1 h before staining the cellular proteins with 0.4% SRB in 1% acetic acid. The stained cells were dissolved in 10 mM Tris buffer (pH 10.0). The effects of the compounds on cell proliferation were calculated as percentages relative to the solvent-treated control. In addition, the IC50 values were determined by nonlinear regression analysis (percent survival versus concentration).

A549 (lung cancer) cells = experiment: Anti-proliferative activity, SRB assay, A549; assay type: cell-based; conditions: Homo sapiens, A549, 72 h, read-out: IC50, cytotoxicity against A549
Description: as §1

[3] = test system: SK-HEP1 (liver cancer) cells; experiment: Anti-proliferative activity, SRB assay, SK-HEP1; assay type: cell-based; conditions: Homo sapiens, SK-HEP1, 72 h, read-out: IC50, cytotoxicity against SK-HEP1
Description: as §1

[4] = test system: SNU638 (gastric cancer) cells; experiment: Anti-proliferative activity, SRB assay, SNU638; assay type: cell-based; conditions: Homo sapiens, SNU-638, 72 h, read-out: IC50, cytotoxicity against SNU638
Description: as §1

[5] = test system: K562 (leukemia cancer) cells; experiment: Anti-proliferative activity, SRB assay, K562; assay type: cell-based; conditions: Homo sapiens, K562, 72 h, read-out: IC50, cytotoxicity against K562
Description: as §1

[6] = test system: HCT116 (colon cancer) cells; experiment: Anti-proliferative activity, SRB assay, HCT116; assay type: cell-based; conditions: Homo sapiens, HCT-116, 72 h, read-out: IC50, cytotoxicity against HCT116
Description: as §1

[7] = test system: HCT116, A549, SNU638, SK-HEP1, K562 and MDA-MB231 human carcinoma cell lines; experiment: Anti-proliferative activity, SRB assay, panel of six human carcinoma cell lines; assay type: cell-based; conditions: 72 h
Description: as §1

[8] = purified C. albicans ICL 2.5 μg/mL, 37 °C, 30 min, pH 7.0, read-out: IC50, inhibition of Candida albicans isocitrate lyase (ICL)

Chain of Candida albicans isocitrate lyase (ICL) (Q9P8Q7 whole entry): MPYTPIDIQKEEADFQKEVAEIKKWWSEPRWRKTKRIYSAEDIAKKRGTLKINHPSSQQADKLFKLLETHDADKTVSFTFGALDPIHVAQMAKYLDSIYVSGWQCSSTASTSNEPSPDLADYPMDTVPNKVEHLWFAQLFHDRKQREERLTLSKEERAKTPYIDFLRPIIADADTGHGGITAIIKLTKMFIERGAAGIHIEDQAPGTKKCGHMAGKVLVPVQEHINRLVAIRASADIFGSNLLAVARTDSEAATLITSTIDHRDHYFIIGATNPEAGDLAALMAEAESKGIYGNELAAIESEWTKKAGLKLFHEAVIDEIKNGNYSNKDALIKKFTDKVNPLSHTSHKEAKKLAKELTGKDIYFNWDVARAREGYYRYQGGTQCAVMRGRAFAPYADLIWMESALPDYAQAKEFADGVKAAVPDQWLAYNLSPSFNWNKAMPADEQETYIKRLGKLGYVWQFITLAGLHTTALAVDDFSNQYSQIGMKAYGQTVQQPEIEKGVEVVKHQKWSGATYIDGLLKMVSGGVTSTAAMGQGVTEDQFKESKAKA

SMILES: C=C1Oc2cc(OC)cc(C(=O)O[C@H]3COC(=O)C[C@H](N)c4cc(O)c(c(Cl)c4)O[C@@H]4c5ccc3c(Cl)c5C3=CC=C[C@@]34O[C@@H]3OC(C)(C)[C@@H](N(C)C)[C@@H](O)[C@H]3O)c2NC1=O [Compound 2, C-1027 chromophore-V]
IC50 [1]: 37.9 µM
IC50 [2]: 0.9 µM
IC50 (A549 (lung cancer) cells): 14.7 µM
IC50 [3]: 7.9 µM
IC50 [4]: 9.8 µM
IC50 [5]: 25.1 µM
IC50 [6]: 2.7 µM

SMILES: C=C1Oc2cc(OC)cc(C(=O)O[C@H]3COC(=O)C[C@H](N)c4cc(O)c(c(Cl)c4)O[C@@H]4c5ccc3cc5C3=CC=C[C@@]34O[C@@H]3OC(C)(C)[C@@H](N(C)C)[C@@H](O)[C@H]3O)c2NC1=O [Compound 3, C-1027 chromophore-III]
IC50 [1]: 25.6 µM
IC50 [2]: 44 µM
IC50 (A549 (lung cancer) cells): 2.2 µM
IC50 [3]: 0.9 µM
IC50 [4]: 1.1 µM
IC50 [5]: 4.8 µM
IC50 [6]: 0.6 µM

SMILES: O=C(O)CC[N+](=O)[O-] [3-nitropropionic acid, reference compound]
IC50 [1, 8]: 35.2 µM

SMILES: CN(C)[C@H]1[C@@H](O)[C@@H](O)[C@H](O[C@]23C=CC=C2c2c4ccc(c2Cl)[C@@H](O)COC(=O)C[C@H](N)c2cc(O)c(c(Cl)c2)O[C@H]43)OC1(C)C [Compound 5, fijiolide B]
inhibitory activity towards ICL (in words) [1]: no activity

IC50 [1, 8]: 30.4 µM
SMILES: C=C1Oc2cc(OC)cc(C(=O)OC[C@H]3O[C@H](OC[C@H]4O[C@H](O)[C@H](O)[C@@H](O)[C@@H]4O)[C@H](O)[C@@H](O)[C@@H]3O)c2NC1=O [Compound 1, arcticoside]
cytotoxicity against human carcinoma cell lines (in words) [7]: did not display notable inhibitory activity

SMILES: CC(=O)N[C@H]1CC(=O)OC[C@H](O)c2ccc3c(c2Cl)C2=CC=C[C@]2(O[C@@H]2OC(C)(C)[C@@H](N(C)C)[C@@H](O)[C@H]2O)[C@@H]3Oc2c(O)cc1cc2Cl [Compound 4, fijiolide A]
inhibitory activity towards ICL (in words) [1]: no activity
